We go through 6 compounds from ChEMBL document CHEMBL6127116, “Discovery of Potent and Selective Blockers Targeting the Epilepsy-Associated KNa1.1 Channel” (J Med Chem, 2024).

The structures appear in SMILES notation.

Data set [1] concerns the target T1, Potassium channel subfamily T member 1 (Homo sapiens, UniProt Q5JUK3).
T1 sequence (Q5JUK3 whole entry): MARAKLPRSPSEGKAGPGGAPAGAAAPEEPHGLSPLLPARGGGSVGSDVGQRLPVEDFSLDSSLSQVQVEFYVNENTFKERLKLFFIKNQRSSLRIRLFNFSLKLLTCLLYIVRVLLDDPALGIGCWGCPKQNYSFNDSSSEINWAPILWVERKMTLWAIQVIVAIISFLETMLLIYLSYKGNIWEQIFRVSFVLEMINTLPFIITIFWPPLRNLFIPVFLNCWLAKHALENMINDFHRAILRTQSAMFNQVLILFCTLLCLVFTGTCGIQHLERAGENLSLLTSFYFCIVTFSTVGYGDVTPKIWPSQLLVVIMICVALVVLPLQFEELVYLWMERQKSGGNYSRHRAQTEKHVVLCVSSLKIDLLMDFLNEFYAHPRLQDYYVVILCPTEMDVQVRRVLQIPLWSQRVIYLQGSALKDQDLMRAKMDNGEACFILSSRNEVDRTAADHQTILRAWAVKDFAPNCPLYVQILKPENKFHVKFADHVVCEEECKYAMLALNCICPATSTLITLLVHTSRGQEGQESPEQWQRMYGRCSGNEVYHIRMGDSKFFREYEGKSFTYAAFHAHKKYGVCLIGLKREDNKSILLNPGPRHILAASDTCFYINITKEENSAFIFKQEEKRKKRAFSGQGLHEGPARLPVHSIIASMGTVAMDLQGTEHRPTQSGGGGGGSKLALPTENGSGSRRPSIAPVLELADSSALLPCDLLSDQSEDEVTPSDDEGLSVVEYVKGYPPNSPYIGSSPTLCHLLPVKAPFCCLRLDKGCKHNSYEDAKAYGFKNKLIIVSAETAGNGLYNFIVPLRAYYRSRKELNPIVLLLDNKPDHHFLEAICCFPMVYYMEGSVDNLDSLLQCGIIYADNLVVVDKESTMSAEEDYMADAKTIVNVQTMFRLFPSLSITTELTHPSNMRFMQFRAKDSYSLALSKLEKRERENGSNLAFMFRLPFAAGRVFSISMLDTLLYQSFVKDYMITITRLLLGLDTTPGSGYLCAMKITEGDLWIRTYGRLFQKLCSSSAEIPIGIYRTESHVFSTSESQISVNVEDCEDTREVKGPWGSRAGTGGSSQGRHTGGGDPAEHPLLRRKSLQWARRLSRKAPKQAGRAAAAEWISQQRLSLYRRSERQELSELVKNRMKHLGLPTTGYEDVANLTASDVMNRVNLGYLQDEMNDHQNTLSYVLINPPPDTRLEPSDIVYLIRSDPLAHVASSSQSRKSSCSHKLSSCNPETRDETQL
The data set is described as follows: Inhibition of wild type human KNa1.1 expressed in HEK293T cells by patch-clamp electrophysiology method. It is filed as cell-based. A general note: The patch-clamp technique gives a direct electrical read-out from membranes.

The nature of data set [2]: Inhibition of KNa 1.1 (unknown origin). The arrangement: species or system Homo sapiens.
The next data set has as its system HEK293. The data set is described as follows: Cytotoxicity against HEK293 cells assessed as reduction in cell viability at 10 uM by CCK8 method relative to control. It is filed as toxicity, cell-based. The settings on record: human, hek293, 10 µM. For orientation: Tetrazolium dyes change colour on reduction, which living cells bring about.
For data set [3], the target named is T1, Potassium channel subfamily T member 1. The data set is described as follows: Inhibition of human SLACK expressed in HEK293 cells.
A short description of data set [4]: Drug concentration in male ICR mouse brain at 10 mg/kg, iv measured after 0.5 hrs by LC-MS/MS analysis. As to conditions: read-out: Ct; call rule not given here. The data set is classed as ADME, organism-based.
A short description of data set [5]: Ratio of drug concentration in male ICR mouse brain to plasma at 50 mg/kg, po measured after 0.5 hrs by LC-MS/MS analysis. The data set is classed as ADME, organism-based. As to conditions: brain and plasma, read-out: BPR.
The target in data set [6] is Sodium channel protein type 5 subunit alpha (Homo sapiens, UniProt Q14524). Nature of the data set: Inhibition of Nav1.5 (unknown origin) expressed in HEK293T cells at 10 uM by patch-clamp electrophysiology method. The data set is classed as cell-based.
In data set [7] the target is T2, Voltage-gated inwardly rectifying potassium channel KCNH2 (Homo sapiens, UniProt Q12809). The data set is described as follows: Inhibition of human ERG expressed in Xenopus laevis oocytes at 10 uM by two-electrode voltage clamp method. It is filed as toxicity, cell-based. As to conditions: oocyte.
Data set [8] can be described thus: Tmax in male ICR mouse at 10 mg/kg, iv administered as single dose measured upto 24 hrs by HPLC analysis. The data set is classed as ADME, organism-based. As to conditions: in vivo.
Data set [9] is described as follows: Drug concentration in male ICR mouse plasma at 10 mg/kg, iv measured after 0.5 hrs by LC-MS/MS analysis. The data set is classed as ADME, organism-based.
Data set [10] is described as follows: Inhibition of human KNa1.1 Y796H mutant expressed in HEK293T cells by patch-clamp electrophysiology method. It is filed as cell-based. The settings on record: HEK-293T.
Data set [11] can be described thus: Half life in male ICR mouse at 10 mg/kg, iv administered as single dose measured upto 24 hrs by HPLC analysis. The data set is classed as ADME, organism-based. As to conditions: in vivo.
In data set [12] the target is T2, Voltage-gated inwardly rectifying potassium channel KCNH2. The data set is described as follows: Inhibition of human ERG expressed in Xenopus laevis oocytes by two-electrode voltage clamp method. It is filed as toxicity, cell-based, Oocyte. For orientation: In two-electrode clamp one electrode senses voltage and the other passes current.
A short description of data set [13]: AUC (0 to t) in male ICR mouse at 50 mg/kg, po administered as single dose measured upto 24 hrs by HPLC analysis. The data set is classed as ADME, organism-based. As to conditions: in vivo.
A short description of data set [14]: Cmax in male ICR mouse at 10 mg/kg, iv administered as single dose measured upto 24 hrs by HPLC analysis. The data set is classed as ADME, organism-based. As to conditions: in vivo.
Data set [15] is described as follows: Drug concentration in male ICR mouse plasma at 50 mg/kg, po measured after 2 hrs by LC-MS/MS analysis. It is filed as ADME, organism-based.
Data set [16] can be described thus: Inhibition of KNa1.1 F327I mutant (unknown origin) expressed in HEK293T cells by patch-clamp electrophysiology method. It is filed as cell-based. As to conditions: Homo sapiens, HEK-293T.
The nature of data set [17]: Oral bioavailability in male ICR mouse at 50 mg/kg administered as single dose measured upto 24 hrs by HPLC analysis. It is filed as ADME, organism-based. The settings on record: in vivo.
Data set [18] can be described thus: Drug concentration in male ICR mouse brain at 50 mg/kg, po measured after 0.5 hrs by LC-MS/MS analysis. It is filed as ADME, organism-based. As to conditions: read-out: Ct.
Data set [19] is described as follows: Drug concentration in male ICR mouse brain at 10 mg/kg, iv measured after 2 hrs by LC-MS/MS analysis. It is filed as ADME, organism-based. As to conditions: read-out: Ct.
Data set [20] is described as follows: Drug concentration in male ICR mouse plasma at 10 mg/kg, iv measured after 2 hrs by LC-MS/MS analysis. The data set is classed as ADME, organism-based.
The nature of data set [21]: Cmax in male ICR mouse at 50 mg/kg, po administered as single dose measured upto 24 hrs by HPLC analysis. It is filed as ADME, organism-based. As to conditions: in vivo.
Data set [22] in a line: Drug concentration in male ICR mouse plasma at 50 mg/kg, po measured after 0.5 hrs by LC-MS/MS analysis. The data set is classed as ADME, organism-based.
Data set [23] in a line: MRT (0 to t) in male ICR mouse at 50 mg/kg, po administered as single dose measured upto 24 hrs by HPLC analysis. The data set is classed as ADME, organism-based. As to conditions: in vivo.
Data set [24] in a line: MRT (0 to t) in male ICR mouse at 10 mg/kg, iv administered as single dose measured upto 24 hrs by HPLC analysis. The data set is classed as ADME, organism-based. As to conditions: in vivo.
Data set [25] can be described thus: Half life in male ICR mouse at 50 mg/kg, po administered as single dose measured upto 24 hrs by HPLC analysis. As to conditions: in vivo. The data set is classed as ADME, organism-based.
A short description of data set [26]: Volume of distribution at steady state in male ICR mouse at 10 mg/kg, iv administered as single dose measured upto 24 hrs by HPLC analysis. It is filed as ADME, organism-based. As to conditions: in vivo, read-out: Vdss.
Data set [27] can be described thus: Ratio of drug concentration in male ICR mouse brain to plasma at 10 mg/kg, iv measured after 0.5 hrs by LC-MS/MS analysis. It is filed as ADME, organism-based. The settings on record: brain and plasma, read-out: BPR.
Data set [28] in a line: Tmax in male ICR mouse at 50 mg/kg, po administered as single dose measured upto 24 hrs by HPLC analysis. It is filed as ADME, organism-based. The settings on record: in vivo.
Data set [29] is described as follows: Ratio of drug concentration in male ICR mouse brain to plasma at 10 mg/kg, iv measured after 2 hrs by LC-MS/MS analysis. The settings on record: brain and plasma, read-out: BPR. It is filed as ADME, organism-based.
Data set [30] can be described thus: AUC (0 to t) in male ICR mouse at 10 mg/kg, iv administered as single dose measured upto 24 hrs by HPLC analysis. It is filed as ADME, organism-based. The settings on record: in vivo.
Data set [31] in a line: Ratio of drug concentration in male ICR mouse brain to plasma at 50 mg/kg, po measured after 2 hrs by LC-MS/MS analysis. The data set is classed as ADME, organism-based. The settings on record: brain and plasma, read-out: BPR.
Data set [32] can be described thus: Clearance in male ICR mouse at 10 mg/kg, iv administered as single dose measured upto 24 hrs by HPLC analysis. The data set is classed as ADME, organism-based. As to conditions: in vivo.
A short description of data set [33]: Drug concentration in male ICR mouse brain at 50 mg/kg, po measured after 2 hrs by LC-MS/MS analysis. As to conditions: read-out: Ct. It is filed as ADME, organism-based.

Sequence of Sodium channel protein type 5 subunit alpha (Q14524 whole entry): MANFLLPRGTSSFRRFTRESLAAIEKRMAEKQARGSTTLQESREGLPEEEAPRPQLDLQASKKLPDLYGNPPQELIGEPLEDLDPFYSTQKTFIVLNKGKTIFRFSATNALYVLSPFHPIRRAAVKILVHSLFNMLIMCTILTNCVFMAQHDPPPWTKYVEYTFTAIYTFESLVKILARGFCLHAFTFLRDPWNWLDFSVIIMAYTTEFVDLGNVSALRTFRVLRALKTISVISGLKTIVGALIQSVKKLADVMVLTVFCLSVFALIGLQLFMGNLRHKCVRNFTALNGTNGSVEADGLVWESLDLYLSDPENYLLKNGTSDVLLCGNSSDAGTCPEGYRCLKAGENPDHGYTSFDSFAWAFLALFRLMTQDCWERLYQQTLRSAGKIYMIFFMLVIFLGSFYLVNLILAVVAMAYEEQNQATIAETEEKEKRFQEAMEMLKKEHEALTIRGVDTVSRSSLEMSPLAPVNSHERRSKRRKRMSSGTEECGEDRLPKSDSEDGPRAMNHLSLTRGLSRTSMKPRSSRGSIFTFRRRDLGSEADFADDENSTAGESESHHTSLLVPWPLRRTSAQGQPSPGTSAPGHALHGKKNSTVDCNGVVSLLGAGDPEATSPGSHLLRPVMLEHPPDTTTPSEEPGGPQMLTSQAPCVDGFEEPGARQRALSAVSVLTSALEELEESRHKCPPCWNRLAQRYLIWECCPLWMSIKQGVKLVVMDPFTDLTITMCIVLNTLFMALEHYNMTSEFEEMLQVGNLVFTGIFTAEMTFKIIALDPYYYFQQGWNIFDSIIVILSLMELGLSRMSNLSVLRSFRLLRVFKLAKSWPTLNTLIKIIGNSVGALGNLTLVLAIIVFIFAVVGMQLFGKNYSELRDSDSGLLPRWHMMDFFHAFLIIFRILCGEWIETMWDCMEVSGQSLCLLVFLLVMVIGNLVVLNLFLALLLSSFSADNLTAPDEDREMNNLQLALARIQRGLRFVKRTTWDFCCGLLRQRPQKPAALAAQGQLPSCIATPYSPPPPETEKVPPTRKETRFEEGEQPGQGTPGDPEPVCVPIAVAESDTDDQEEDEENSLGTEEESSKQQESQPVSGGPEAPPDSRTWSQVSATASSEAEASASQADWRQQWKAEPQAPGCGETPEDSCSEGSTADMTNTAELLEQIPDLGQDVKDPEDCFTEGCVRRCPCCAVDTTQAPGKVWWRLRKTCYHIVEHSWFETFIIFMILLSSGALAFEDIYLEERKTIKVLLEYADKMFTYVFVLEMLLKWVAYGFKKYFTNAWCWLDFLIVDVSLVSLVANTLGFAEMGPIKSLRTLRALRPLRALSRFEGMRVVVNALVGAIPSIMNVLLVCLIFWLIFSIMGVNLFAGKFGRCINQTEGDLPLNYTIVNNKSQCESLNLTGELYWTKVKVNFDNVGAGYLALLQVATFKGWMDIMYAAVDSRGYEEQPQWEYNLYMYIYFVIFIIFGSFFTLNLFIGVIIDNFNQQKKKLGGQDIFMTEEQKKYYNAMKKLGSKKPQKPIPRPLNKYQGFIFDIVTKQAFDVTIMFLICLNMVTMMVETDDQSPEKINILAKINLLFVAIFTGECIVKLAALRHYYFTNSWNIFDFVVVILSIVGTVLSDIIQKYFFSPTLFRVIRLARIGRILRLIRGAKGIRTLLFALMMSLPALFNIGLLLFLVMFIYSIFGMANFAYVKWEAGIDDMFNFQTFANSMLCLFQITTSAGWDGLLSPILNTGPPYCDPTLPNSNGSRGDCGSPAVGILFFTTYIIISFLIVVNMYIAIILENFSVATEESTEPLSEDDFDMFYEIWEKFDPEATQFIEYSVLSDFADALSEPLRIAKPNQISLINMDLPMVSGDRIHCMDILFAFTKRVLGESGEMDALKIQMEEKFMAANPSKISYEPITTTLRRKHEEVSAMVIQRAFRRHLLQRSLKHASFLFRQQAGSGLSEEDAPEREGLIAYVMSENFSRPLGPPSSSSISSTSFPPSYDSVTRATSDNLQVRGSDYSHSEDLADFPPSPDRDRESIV
T2 sequence (Q12809 whole entry): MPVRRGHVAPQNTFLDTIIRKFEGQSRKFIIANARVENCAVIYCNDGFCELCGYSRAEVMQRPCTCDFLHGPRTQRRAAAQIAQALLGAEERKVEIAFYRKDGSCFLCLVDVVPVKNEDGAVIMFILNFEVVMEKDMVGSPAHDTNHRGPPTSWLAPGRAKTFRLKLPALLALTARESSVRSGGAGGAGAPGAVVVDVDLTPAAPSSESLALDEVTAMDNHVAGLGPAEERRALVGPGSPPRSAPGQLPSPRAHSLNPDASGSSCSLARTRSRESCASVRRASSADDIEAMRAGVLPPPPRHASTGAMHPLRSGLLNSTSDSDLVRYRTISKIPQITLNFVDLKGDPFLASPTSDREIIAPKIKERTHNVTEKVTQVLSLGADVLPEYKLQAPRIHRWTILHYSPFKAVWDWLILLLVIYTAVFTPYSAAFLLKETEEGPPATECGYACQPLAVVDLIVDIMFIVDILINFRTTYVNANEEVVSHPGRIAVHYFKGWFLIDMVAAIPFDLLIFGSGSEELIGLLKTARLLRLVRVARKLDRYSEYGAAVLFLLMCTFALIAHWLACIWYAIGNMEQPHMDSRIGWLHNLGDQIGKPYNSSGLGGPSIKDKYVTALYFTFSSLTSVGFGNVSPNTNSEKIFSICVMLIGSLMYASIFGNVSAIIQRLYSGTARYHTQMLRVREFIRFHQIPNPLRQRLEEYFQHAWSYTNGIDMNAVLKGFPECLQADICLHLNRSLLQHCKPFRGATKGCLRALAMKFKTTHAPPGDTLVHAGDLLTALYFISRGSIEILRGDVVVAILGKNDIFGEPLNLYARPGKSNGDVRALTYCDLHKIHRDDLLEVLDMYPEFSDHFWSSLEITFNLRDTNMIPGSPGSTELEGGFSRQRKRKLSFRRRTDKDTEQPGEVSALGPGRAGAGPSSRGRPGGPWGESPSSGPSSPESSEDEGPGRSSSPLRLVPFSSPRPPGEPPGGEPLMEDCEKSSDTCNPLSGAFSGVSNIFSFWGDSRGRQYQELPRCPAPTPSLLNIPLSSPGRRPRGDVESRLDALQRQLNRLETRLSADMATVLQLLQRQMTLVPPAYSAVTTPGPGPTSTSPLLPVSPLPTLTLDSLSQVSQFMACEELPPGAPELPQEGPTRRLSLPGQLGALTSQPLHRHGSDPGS

With `CC(C)COCC(CN(Cc1ccccc1)c1ccccc1)N1CCCC1` (stereo not given) [BEPRIDIL], the results for the IC50 in data set [1] and in data set [2] were 16.3 µM and 6.36 µM, respectively.

For `C=C[C@H]1CN2CC[C@H]1C[C@@H]2[C@@H](O)c1ccnc2ccc(OC)cc12` [QUINIDINE], the Activity in the data set on HEK293 turned out to be 103.53%. For the same compound, in data set [2], the half-maximal inhibitory concentration (IC50) (as a rule, the point on the concentration scale where inhibition reaches its midpoint) was determined as 89.6 µM.

In [3], `COc1ccc(Cl)cc1NC(=O)CN1CCN(S(=O)(=O)N2CCC(C)CC2)CC1` displayed a 50% inhibitory concentration (IC50) of 1.84 µM.

For the compound `c1ccc(COc2ccc3ccccc3c2CCC2CCNCC2)cc1`, the concentration at 0.5 h in [4] turned out to be 8010 ng/mL; in data set [9], 1030 ng/mL; in data set [18], 604 ng/mL; in [22], 1290 ng/mL. Further, the Kp at 0.5 h turned out to be 0.47 in data set [5] and 7.8 in data set [27]. Further, the “inhibition (INH)” value in [6] and in data set [7] was “Not Active” each time. Moreover, the time of peak concentration (Tmax) (usually the time from dosing to the highest level) stood at 4.8 min in data set [8] and 0.5 h in data set [28]. In addition, the IC50 was found to be 0.4 µM in [10], 90.2 µM in [12], 3.43 µM in [1] and 24.2 µM in data set [16]. For the same compound, the figures for the half-life in [11] and in data set [25] were 2.46 h and 3.11 h, respectively. Moreover, the results for the AUC(0-t) at 24 h in data set [13] and in data set [30] were 7450 ng·h/mL and 4550 ng·h/mL, respectively. Further, the figures for the Cmax in [14] and in data set [21] were 2180 ng/mL and 1290 ng/mL, respectively. In addition, the concentration at 2 h in data set [15] was determined as 893 ng/mL; in [19], 3330 ng/mL; in data set [20], 605 ng/mL; in data set [33], 1200 ng/mL. In addition, the bioavailability (in general, dose-corrected exposure relative to a reference, in per cent) in data set [17] was 32.8%. In the data set with HEK293, the Activity was 99.63%. For the same compound, the MRT last – broadly, a mean duration of stay, worked out from the concentration-time curve – at 24 h in data set [23] turned out to be 4.96 h; in data set [24], 3.12 h. Also, in [26], the Vd came to 6.91 L/kg. Also, the Kp at 2 h in [29] came out at 5.51; in [31] it was 1.34. Further, in data set [32], the clearance (as a rule, the volume of plasma or blood freed of the substance per unit of time) was 36.6 mL/min/kg.

Regarding `CCn1c2c(c3ccccc31)CN(CCCCNCc1c(OCc3ccc(F)cc3)ccc3ccccc13)CC2`, in data set [6], the “inhibition (INH)” value is “Not Active”.

On to `NCCNCCCc1c(OCc2ccc(Br)cc2)ccc2ccccc12`, for which the “inhibition (INH)” value in data set [6] and in data set [7] was “Not Active” each time.
